In brackets after ≈: the same amount, converted by molar mass. Where two headings read alike, the source gives them in different places.
Experiments:
Assay in all cases: microbe, parasite or virus in culture
Conditions in all cases: 48 h, read-out: MIC
[1] = tested on: Candida albicans C. a.^f (Table 4); parameters: species or system yeast; tube dilution MIC in YEPD (± 1.2 M sorbitol), complete growth inhibition by turbidity
Description: (§1) Standard YEPD (Yeast Extract, Peptone, Dextrose) ([Sherman, 1990]), YEPD+S (YEPD with 1.2M sorbitol), YES (Yeast Extract, Dextrose and Supplements of Adenine, Histidine, Leucine, Uracil and Lysine) ([Alfa et al., 1993]) and YES+S (YES with 1.2 M sorbitol) ([Ribas et al., 1991]; [Ishiguro et al., 1997]), media were used for determination of MIC values of the tested compounds. A stock solution of 10 mg/ml of each tested compounds was prepared in DMSO and serial dilutions in DMSO were prepared. The final concentration of DMSO was 2% in the YEPD medium. […] The serial dilutions of compounds were dispensed into test tubes with 1 ml of YEPD or YEPD+S to make final concentrations of 200, 100, 50, 25, 12.5, 6.26, 3.125, 1.6, 0.8 and 0.4 μg/ml. The tested yeast strains were previously grown in YEPD, YEPD+S, YES or YES+S agar plates at 30°C for 48 h. For inoculation of YEPD or YEPD+S macro test tubes a suspension of tested fungus was produced with 10^5 cfu/ml (cfu - colony forming unit). 10 μl of suspension was used for inoculation of each tube. After 48 h incubation at 30°C the tubes were checked. The MIC value is the lowest concentration of the tested compound that could inhibit the fungal growth and the medium remained clear. From each tube 10 μl culture was plated on YEPD agar medium to check the contamination. The MIC tests were carried out in three parallels. Micro-culture assays of large numbers of samples were analyzed as described) ([Martins et al., 2011]). Essentially early log-phase cells were grown in YEPD, YEPD+S, YES or YES+S (1.2 M sorbitol) medium at 30°C, and diluted to cell density of 4 X 10^6 cells/ml in YEPD, YEPD+S, YES or YES+S medium and aliquots of 100 μl were dispensed into each small test tube (3 ml test tube size). Then, another 100 μl of YEPD, YEPD+S, YES or YES+S with the corresponding dilution of each compound at 2X concentration (4% DMSO) was added. The final volume was 200 μl, with the cells diluted to of 2 X 10^6 cells/ml and each compound diluted to 1X final concentration, containing increasing concentrations of antifungal (0, 1, 2, 5, 10, 20, 50, 100 and 200 μg/ml) or an equivalent volume of solvent (2% DMSO). The cells were grown at 30°C in an orbital roller and turbidity was analyzed after 24 and 48 h of incubation. The MIC was determined as the minimal concentration of tested compound that produced complete cell growth inhibition and kept the medium clear. The MIC values were calculated from at least three independent experiments.

[2] = tested on: Candida albicans C. a.^g (Table 4); parameters: species or system yeast; tube dilution MIC in YEPD (± 1.2 M sorbitol), complete growth inhibition by turbidity
Description: as §1

[3] = tested on: Candida albicans C. a.^h (Table 4); parameters: species or system yeast; tube dilution MIC in YEPD (± 1.2 M sorbitol), complete growth inhibition by turbidity
Description: as §1

[4] = tested on: T1, Saccharomyces cerevisiae S. c.^d (wild-type CVX12-3A); parameters: species or system yeast; tube dilution MIC in YEPD (± 1.2 M sorbitol), complete growth inhibition by turbidity
T1 construct: CVX12-3A
Description: as §1

[5] = tested on: T2, Schizosaccharomyces pombe S. p.^a (wild-type 972 h-); parameters: species or system yeast; tube dilution MIC in YEPD (± 1.2 M sorbitol), complete growth inhibition by turbidity
T2 construct: 972 h-
Description: as §1

[6] = tested on: Candida albicans C. a.^f (Tables 5, 6); parameters: species or system yeast; micro tube dilution MIC in YES (± 1.2 M sorbitol), complete growth inhibition by turbidity
Description: as §1, with “h.” for “h. For inoculation of YEPD or YEPD+S macro test tubes a suspension of tested fungus was produced with 10^5 cfu/ml (cfu - colony forming unit). 10 μl of suspension was used for inoculation of each tube. After 48 h incubation at 30°C the tubes were checked. The MIC value is the lowest concentration of the tested compound that could inhibit the fungal growth and the medium remained clear. From each tube 10 μl culture was plated on YEPD agar medium to check the contamination. The MIC tests were carried out in three parallels.”

[7] = tested on: Candida albicans C. a.^g (Table 6); parameters: species or system yeast; micro tube dilution MIC in YES (± 1.2 M sorbitol), complete growth inhibition by turbidity
Description: as §1, with “h.” for “h. For inoculation of YEPD or YEPD+S macro test tubes a suspension of tested fungus was produced with 10^5 cfu/ml (cfu - colony forming unit). 10 μl of suspension was used for inoculation of each tube. After 48 h incubation at 30°C the tubes were checked. The MIC value is the lowest concentration of the tested compound that could inhibit the fungal growth and the medium remained clear. From each tube 10 μl culture was plated on YEPD agar medium to check the contamination. The MIC tests were carried out in three parallels.”

[8] = tested on: T1, Saccharomyces cerevisiae S. c.^d (wild-type CVX12-3A); parameters: species or system yeast; micro tube dilution MIC in YES (± 1.2 M sorbitol), complete growth inhibition by turbidity
Description: as §1, with “h.” for “h. For inoculation of YEPD or YEPD+S macro test tubes a suspension of tested fungus was produced with 10^5 cfu/ml (cfu - colony forming unit). 10 μl of suspension was used for inoculation of each tube. After 48 h incubation at 30°C the tubes were checked. The MIC value is the lowest concentration of the tested compound that could inhibit the fungal growth and the medium remained clear. From each tube 10 μl culture was plated on YEPD agar medium to check the contamination. The MIC tests were carried out in three parallels.”

[9] = tested on: T2, Schizosaccharomyces pombe S. p.^a (wild-type 972 h-); parameters: species or system yeast; micro tube dilution MIC in YES (± 1.2 M sorbitol), complete growth inhibition by turbidity
Description: as §1, with “h.” for “h. For inoculation of YEPD or YEPD+S macro test tubes a suspension of tested fungus was produced with 10^5 cfu/ml (cfu - colony forming unit). 10 μl of suspension was used for inoculation of each tube. After 48 h incubation at 30°C the tubes were checked. The MIC value is the lowest concentration of the tested compound that could inhibit the fungal growth and the medium remained clear. From each tube 10 μl culture was plated on YEPD agar medium to check the contamination. The MIC tests were carried out in three parallels.”

C[C@@H]1[C@H](O)[C@@H](C)/C=C/C=C/C=C/C=C/C=C/C=C/C=C/[C@H](O[C@@H]2O[C@H](C)[C@@H](O)[C@H](N)[C@@H]2O)C[C@@H]2O[C@](O)(C[C@@H](O)C[C@@H](O)[C@H](O)CC[C@@H](O)C[C@@H](O)CC(=O)O[C@H]1C)C[C@H](O)[C@H]2C(=O)O [amphotericin B]
MIC [1]: 0.4 mg/L (≈ 0.433 µM) | MIC [2]: 0.8 mg/L (≈ 0.866 µM) | MIC [3]: 0.4 mg/L (≈ 0.433 µM) | MIC [4]: 0.2 mg/L (≈ 0.216 µM) | MIC [5]: < 0.1 mg/L | MIC [6]: 0.8 mg/L (≈ 0.866 µM) | MIC [7]: 0.4 mg/L (≈ 0.433 µM) | MIC [8]: 0.2 mg/L (≈ 0.216 µM) | MIC [9]: < 0.1 mg/L
